Experiments:
Type in all cases: biochemical
recombinant hMAO-A = recombinant hMAO-A (Homo sapiens (Human), UniProt P21397); assay: MAO-A activity assay (MAO-Glo assay kit); conditions: 40 μM substrate, 30 mins pre-incubation
Protocol: (§1) The biological activities of the compounds of the present application can be assessed with methods and assays known in the art. For example, the potency of the compounds of the present application can be evaluated with an SSAO Activity Assay. Briefly, compounds of the present application can be applied to recombinant hSSAO, hMAO-A, and hMAO-B isoforms and the amine oxidase activity of the enzymes are measured after the addition and subsequent oxidation of the luminogenic substrate (e.g., with the MAO-Glo assay kit from Promega). The IC50 can be calculated, for example, by fitting the dose response curve using a 4-parameter non-linear regression routine.
(§2) Amine oxidase activity of recombinant hSSAO, hMAO-A, and hMAO-B isoforms are measured using the MAO-Glo assay kit (Promega, V1402). Ten nL test compounds (with DMSO as vehicle, 0.1% v/v for hSSAO, hMAO-A and hMAO-B) were added into assay plates by Echo, and pre-incubated with 5 μL of enzyme for 30 mins at room temperature before the addition of 5 μL of luminogenic substrate. The substrate concentration is 40 μM for human recombinant SSAO, 40 μM for human recombinant MAO-A, and 4 μM for human recombinant MAO-B. The hSSAO and hMAO-A assays were conducted in the MAO-A reaction buffer in the kit, and the MAO-B assay was conducted in the MAO-B reaction buffer. Oxidation of the substrate was conducted for 1 hr, before the addition of detecting reagent according the manufacture's protocol. The IC50 value of the tested compounds was calculated by fitting the dose response curve using a 4-parameter non-linear regression routine.

recombinant hSSAO = recombinant hSSAO (Homo sapiens (Human), UniProt Q16853); assay: SSAO Activity Assay (MAO-Glo assay kit); conditions: 40 μM substrate, 30 mins pre-incubation
recombinant hSSAO, sequence (Q16853 whole entry): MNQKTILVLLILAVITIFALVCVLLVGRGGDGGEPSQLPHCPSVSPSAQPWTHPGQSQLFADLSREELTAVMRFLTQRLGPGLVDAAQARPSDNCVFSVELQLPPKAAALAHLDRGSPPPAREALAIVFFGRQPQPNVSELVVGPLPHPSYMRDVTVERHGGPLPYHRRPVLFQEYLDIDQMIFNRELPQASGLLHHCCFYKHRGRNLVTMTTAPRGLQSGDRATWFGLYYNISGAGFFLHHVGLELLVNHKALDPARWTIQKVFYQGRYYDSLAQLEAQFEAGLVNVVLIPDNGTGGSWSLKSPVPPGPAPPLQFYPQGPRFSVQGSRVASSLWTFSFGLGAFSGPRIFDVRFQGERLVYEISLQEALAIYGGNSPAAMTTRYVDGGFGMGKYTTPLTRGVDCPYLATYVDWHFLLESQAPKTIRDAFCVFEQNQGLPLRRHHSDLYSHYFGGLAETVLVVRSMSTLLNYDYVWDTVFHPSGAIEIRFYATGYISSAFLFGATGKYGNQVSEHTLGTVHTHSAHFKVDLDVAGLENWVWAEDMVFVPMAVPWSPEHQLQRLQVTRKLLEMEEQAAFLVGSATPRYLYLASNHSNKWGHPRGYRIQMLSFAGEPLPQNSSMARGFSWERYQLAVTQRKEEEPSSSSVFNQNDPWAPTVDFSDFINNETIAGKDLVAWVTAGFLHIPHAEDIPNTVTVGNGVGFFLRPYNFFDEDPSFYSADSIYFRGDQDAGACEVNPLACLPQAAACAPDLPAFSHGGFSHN
Protocol: as §1, §2

recombinant hMAO-B = recombinant hMAO-B (Homo sapiens (Human), UniProt P27338); assay: MAO-B activity assay (MAO-Glo assay kit); conditions: 4 μM substrate, 30 mins pre-incubation
recombinant hMAO-B, sequence (P27338 whole entry): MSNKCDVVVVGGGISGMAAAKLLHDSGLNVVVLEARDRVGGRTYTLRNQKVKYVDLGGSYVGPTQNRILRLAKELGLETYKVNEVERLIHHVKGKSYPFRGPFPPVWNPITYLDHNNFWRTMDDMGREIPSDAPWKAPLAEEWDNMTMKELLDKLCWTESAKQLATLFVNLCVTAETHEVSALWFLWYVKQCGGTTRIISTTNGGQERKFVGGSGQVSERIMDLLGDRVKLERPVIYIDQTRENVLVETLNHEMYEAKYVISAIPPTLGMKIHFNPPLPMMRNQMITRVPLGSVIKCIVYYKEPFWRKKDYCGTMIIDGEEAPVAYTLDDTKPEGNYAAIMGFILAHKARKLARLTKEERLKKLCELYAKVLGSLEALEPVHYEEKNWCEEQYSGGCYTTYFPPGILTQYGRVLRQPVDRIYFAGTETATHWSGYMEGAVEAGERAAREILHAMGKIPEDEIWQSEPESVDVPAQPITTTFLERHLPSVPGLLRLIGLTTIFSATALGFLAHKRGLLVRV
Protocol: as §1, §2

recombinant hMAO-A, sequence (P21397 whole entry, canonical isoform): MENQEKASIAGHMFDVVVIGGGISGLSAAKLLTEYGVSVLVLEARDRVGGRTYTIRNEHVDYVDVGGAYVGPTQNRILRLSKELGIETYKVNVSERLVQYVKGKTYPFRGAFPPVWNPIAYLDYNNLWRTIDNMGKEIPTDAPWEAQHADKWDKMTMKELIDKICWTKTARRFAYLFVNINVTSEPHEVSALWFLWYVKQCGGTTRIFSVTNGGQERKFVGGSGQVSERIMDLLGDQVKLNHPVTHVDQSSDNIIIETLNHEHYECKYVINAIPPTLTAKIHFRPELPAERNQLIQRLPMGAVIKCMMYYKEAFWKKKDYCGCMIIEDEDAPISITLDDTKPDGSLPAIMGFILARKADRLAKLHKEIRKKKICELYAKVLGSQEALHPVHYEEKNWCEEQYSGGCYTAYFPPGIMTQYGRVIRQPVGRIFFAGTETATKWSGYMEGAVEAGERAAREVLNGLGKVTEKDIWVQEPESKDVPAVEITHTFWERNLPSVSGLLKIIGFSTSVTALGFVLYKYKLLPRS

Q: CS(=O)(=O)N1CCC(CS(=O)(=O)c2ccc(OC/C(=C/F)CN)cc2)CC1 [Compound 38, (E)-3-fluoro-2-((4-(((1-(methylsulfonyl)piperidin-4-yl)methyl)sulfonyl)phenoxy)methyl) prop-2-en-1-amine] was tested. Which IC50 (recombinant hMAO-A) did it give?
A: < 10 µM

Q: And the IC50 (recombinant hSSAO)?
A: < 0.02 µM

Q: What about the IC50 (recombinant hMAO-B) of the same compound?
A: < 10 µM

Q: With CC(C)(C)CC(=O)N1CCC(CS(=O)(=O)c2ccc(OC/C(=C/F)CN)cc2)CC1 [Compound 42, (E)-1-(4-(((4-((2-(aminomethyl)-3-fluoroallyl)oxy)phenyl)sulfonyl)methyl)piperidin-1-yl)-3,3-dimethylbutan-1-one] as the compound, how does the IC50 (recombinant hMAO-A) read?
A: > 30 µM

Q: And the IC50 (recombinant hSSAO)?
A: 0.02 to 0.1 µM

Q: What about the IC50 (recombinant hMAO-B) of the same compound?
A: > 30 µM

Q: What does the source list for NC/C(=C\F)COc1ccc(S(=O)(=O)CC2CCN(C(=O)C34CC5CC(CC(C5)C3)C4)CC2)cc1 [Compound 43, (E)-adamantan-1-yl(4-(((4-((2-(aminomethyl)-3-fluoroallyl)oxy)phenyl)sulfonyl)methyl)piperidin-1-yl)methanone]?
A: IC50 (recombinant hMAO-A): 10 to 30 µM; IC50 (recombinant hSSAO): 0.1 to 0.5 µM; IC50 (recombinant hMAO-B): 10 to 30 µM

Q: What does the source list for NC/C(=C\F)COc1ccc(S(=O)(=O)Cc2cccc(C(=O)N3CCCC3)c2)cc1 [Compound 47, (E)-(3-(((4-((2-(aminomethyl)-3-fluoroallyl)oxy)phenyl)sulfonyl)methyl)phenyl)(pyrrolidin-1-yl)methanone]?
A: IC50 (recombinant hMAO-A): > 30 µM; IC50 (recombinant hSSAO): 0.1 to 0.5 µM; IC50 (recombinant hMAO-B): > 30 µM

Q: Which results are given for NC/C(=C\F)COc1ccc(S(=O)(=O)CC2CCN(C(=O)CC3CC3)CC2)cc1 [Compound 48, (E)-1-(4-(((4-((2-(aminomethyl)-3-fluoroallyl)oxy)phenyl)sulfonyl)methyl)piperidin-1-yl)-2-cyclopropylethan-1-one]?
A: IC50 (recombinant hMAO-A): > 30 µM; IC50 (recombinant hSSAO): 0.02 to 0.1 µM; IC50 (recombinant hMAO-B): > 30 µM

Q: How did the IC50 (recombinant hMAO-A) turn out when NC/C(=C\F)COc1ccc(S(=O)(=O)CC2CCN(C(=O)C3(C(F)(F)F)CC3)CC2)cc1 [Compound 49, (E)-(4-(((4-((2-(aminomethyl)-3-fluoroallyl)oxy)phenyl)sulfonyl)methyl)piperidin-1-yl)(1-(trifluoromethyl)cyclopropyl) methanone] was run?
A: > 30 µM

Q: And the IC50 (recombinant hSSAO)?
A: 0.02 to 0.1 µM

Q: And the IC50 (recombinant hMAO-B)?
A: > 30 µM

Q: How did the IC50 (recombinant hMAO-A) turn out when NC/C(=C\F)COc1ccc(S(=O)(=O)CC2CCN(C(=O)C3CCC3)CC2)cc1 [Compound 50, (E)-(4-(((4-((2-(aminomethyl)-3-fluoroallyl)oxy)phenyl)sulfonyl)methyl)piperidin-1-yl)(cyclobutyl)methanone] was run?
A: > 30 µM

Q: What about the IC50 (recombinant hSSAO) of the same compound?
A: 0.02 to 0.1 µM

Q: What about the IC50 (recombinant hMAO-B) of the same compound?
A: > 30 µM

Q: What does the source list for NC/C(=C\F)COc1ccc(S(=O)(=O)CC2CCN(C(=O)C3CC(F)(F)C3)CC2)cc1 [Compound 51, (E)-(4-(((4-((2-(aminomethyl)-3-fluoroallyl)oxy)phenyl)sulfonyl)methyl)piperidin-1-yl)(3,3-difluorocyclobutyl)methanone]?
A: IC50 (recombinant hMAO-A): > 30 µM; IC50 (recombinant hSSAO): 0.02 to 0.1 µM; IC50 (recombinant hMAO-B): > 30 µM

Q: With NC/C(=C\F)COc1ccc(S(=O)(=O)CC2CCOCC2)c(Cl)c1 [compound 8, (E)-2-((3-chloro-4-(((tetrahydro-2H-pyran-4-yl)methyl)sulfonyl)phenoxy)methyl)-3-fluoroprop-2-en-1-amine] as the compound, how does the IC50 (recombinant hMAO-A) read?
A: 10 to 30 µM

Q: And the IC50 (recombinant hSSAO)?
A: 0.02 to 0.1 µM

Q: What does the source list for N#CC1(CS(=O)(=O)c2ccc(OC/C(=C/F)CN)cc2)CCOCC1 [compound 12, (E)-4-(((4-((2-(aminomethyl)-3-fluoroallyl)oxy)phenyl)sulfonyl)methyl)tetrahydro-2H-pyran-4-carbonitrile]?
A: IC50 (recombinant hMAO-A): 10 to 30 µM; IC50 (recombinant hSSAO): 0.02 to 0.1 µM

Q: For NC/C(=C\F)COc1ccc(S(=O)(=O)CC23CCC(O)(CC2)CC3)cc1 [compound 17, (E)-4-(((4-((2-(aminomethyl)-3-fluoroallyl)oxy)phenyl)sulfonyl)methyl)bicyclo[2.2.2]octan-1-ol], which IC50 (recombinant hSSAO) is on record?
A: 0.02 to 0.1 µM

Q: And the IC50 (recombinant hMAO-B)?
A: 10 to 30 µM

Q: With NC/C(=C\F)COc1ccc(S(=O)(=O)CC23CCC(C4(O)CC4)(CC2)CC3)cc1 [compound 18, (E)-1-(4-(((4-((2-(aminomethyl)-3-fluoroallyl)oxy)phenyl)sulfonyl)methyl)bicyclo[2.2.2]octan-1-yl)cyclopropan-1-ol] as the compound, how does the IC50 (recombinant hMAO-B) read?
A: 10 to 30 µM

Q: Which IC50 (recombinant hMAO-B) does the source give for COCS(=O)(=O)c1ccc(OC/C(=C/F)CN)cc1 [compound 28, (E)-3-fluoro-2-((4-((methoxymethyl)sulfonyl)phenoxy)methyl)prop-2-en-1-amine] here?
A: 10 to 30 µM

Q: NC/C(=C\F)COc1ccc(S(=O)(=O)COCC2CCN(C(=O)C3(C(F)(F)F)CC3)CC2)cc1 [compound 35, (E)-(4-((((4-((2-(aminomethyl)-3-fluoroallyl)oxy)phenyl)sulfonyl)methoxy)methyl)piperidin-1-yl)(1-(trifluoromethyl)cyclopropyl)methanone] was tested. Which IC50 (recombinant hSSAO) did it give?
A: 0.02 to 0.1 µM

Q: And the IC50 (recombinant hMAO-B)?
A: 10 to 30 µM

Q: Which IC50 (recombinant hMAO-A) does the source give for NC/C(=C\F)COc1ccc(S(=O)(=O)CC2CCN(C(=O)C34CC(F)(C3)C4)CC2)cc1 [compound 40, (E)-(4-(((4-((2-(aminomethyl)-3-fluoroallyl)oxy)phenyl)sulfonyl)methyl)piperidin-1-yl)(3-fluorobicyclo[1.1.1]pentan-1-yl)methanone] here?
A: 10 to 30 µM

Q: And the IC50 (recombinant hSSAO)?
A: 0.02 to 0.1 µM

Q: For CC1(CS(=O)(=O)c2ccc(OC/C(=C/F)CN)cc2)CCN(C(=O)C2(C)CC2)CC1 [compound 57, (E)-(4-(((4-((2-(aminomethyl)-3-fluoroallyl)oxy)phenyl)sulfonyl)methyl)-4-methylpiperidin-1-yl)(1-methylcyclopropyl)methanone], which IC50 (recombinant hMAO-A) is on record?
A: 10 to 30 µM

Q: What about the IC50 (recombinant hSSAO) of the same compound?
A: 0.02 to 0.1 µM

Q: NC/C(=C\F)COc1ccc(S(=O)(=O)CC23CCC(C(=O)NC4CCC4)(CC2)CC3)cc1 [compound 64, (E)-4-(((4-((2-(aminomethyl)-3-fluoroallyl)oxy)phenyl)sulfonyl)methyl)-N-cyclobutylbicyclo[2.2.2]octane-1-carboxamide] was tested. Which IC50 (recombinant hMAO-B) did it give?
A: 10 to 30 µM

Q: For NC/C(=C\F)COc1ccc(S(=O)(=O)CC23CCC(NC(=O)C4CC4)(CC2)CC3)cc1 [compound 76, (E)-N-(4-(((4-((2-(aminomethyl)-3-fluoroallyl)oxy)phenyl)sulfonyl)methyl)bicyclo[2.2.2]octan-1-yl)cyclopropanecarboxamide], which IC50 (recombinant hMAO-B) is on record?
A: 10 to 30 µM

Q: Which IC50 (recombinant hMAO-B) does the source give for CC1CCN(C23CCC(CS(=O)(=O)c4ccc(OC/C(=C/F)CN)cc4)(CC2)CC3)C1=O (stereo not shown) [compound 83, (E)-1-(4-(((4-((2-(aminomethyl)-3-fluoroallyl)oxy)phenyl)sulfonyl)methyl)bicyclo[2.2.2]octan-1-yl)-3-methylpyrrolidin-2-one] here?
A: 10 to 30 µM

Q: What does the source list for NC/C(=C\F)COc1ccc(S(=O)(=O)Cc2ccc(C(=O)NC3CCC3)c(C(F)(F)F)c2)cc1 [compound 89, (E)-4-(((4-((2-(aminomethyl)-3-fluoroallyl)oxy)phenyl)sulfonyl)methyl)-N-cyclobutyl-2-(trifluoromethyl)benzamide]?
A: IC50 (recombinant hSSAO): 0.1 to 0.5 µM; IC50 (recombinant hMAO-B): 10 to 30 µM

Q: How did the IC50 (recombinant hMAO-B) turn out when CC(C)C(=O)N(C)CC(C)(C)CS(=O)(=O)c1ccc(OC/C(=C/F)CN)cc1 [compound 96, (E)-N-(3-((4-((2-(aminomethyl)-3-fluoroallyl)oxy)phenyl)sulfonyl)-2,2-dimethylpropyl)-N-methylisobutyramide] was run?
A: 10 to 30 µM

Q: For CCN(CC(C)(C)CS(=O)(=O)c1ccc(OC/C(=C/F)CN)cc1)C(=O)C(C)C [compound 98, (E)-N-(3-((4-((2-(aminomethyl)-3-fluoroallyl)oxy)phenyl)sulfonyl)-2,2-dimethylpropyl)-N-ethylisobutyramide], which IC50 (recombinant hSSAO) is on record?
A: 0.02 to 0.1 µM

Q: What about the IC50 (recombinant hMAO-B) of the same compound?
A: 10 to 30 µM

Q: How did the IC50 (recombinant hMAO-A) turn out when CC(C)C(=O)N1CCC(CS(=O)(=O)c2ccc(OC/C(=C/F)CN)cc2)C1 (stereo not shown) [compound 99, (E)-1-(3-(((4-((2-(aminomethyl)-3-fluoroallyl)oxy)phenyl)sulfonyl)methyl)pyrrolidin-1-yl)-2-methylpropan-1-one] was run?
A: 10 to 30 µM

Q: And the IC50 (recombinant hSSAO)?
A: 0.02 to 0.1 µM

Q: For CC(C)(C)C(=O)N1CCN(CS(=O)(=O)c2ccc(OC/C(=C/F)CN)cc2)C(=O)C1 [compound 133, (E)-1-(((4-((2-(aminomethyl)-3-fluoroallyl)oxy)phenyl)sulfonyl)methyl)-4-pivaloylpiperazin-2-one], which IC50 (recombinant hMAO-A) is on record?
A: 10 to 30 µM

Q: And the IC50 (recombinant hSSAO)?
A: 0.1 to 0.5 µM

Q: Which results are given for CC1(C(=O)N2CCN(CS(=O)(=O)c3ccc(OC/C(=C/F)CN)cc3)C(=O)C2)CCC1 [compound 134, (E)-1-(((4-((2-(aminomethyl)-3-fluoroallyl)oxy)phenyl)sulfonyl)methyl)-4-(1-methylcyclobutane-1-carbonyl)piperazin-2-one]?
A: IC50 (recombinant hMAO-A): 10 to 30 µM; IC50 (recombinant hSSAO): 0.1 to 0.5 µM

Q: For NC/C(=C\F)COc1ccc(S(=O)(=O)CC23CCC(C(=O)NC4CCC4)(CC2)C3)cc1 [compound 143, (E)-4-(((4-((2-(aminomethyl)-3-fluoroallyl)oxy)phenyl)sulfonyl)methyl)-N-cyclobutylbicyclo[2.2.1]heptane-1-carboxamide], which IC50 (recombinant hSSAO) is on record?
A: 0.02 to 0.1 µM

Q: How did the IC50 (recombinant hSSAO) turn out when CC(C)(C)C(=O)NC12CCC(CS(=O)(=O)c3ccc(OC/C(=C/F)CN)cc3)(CC1)C2 [compound 145, (E)-N-(4-(((4-((2-(aminomethyl)-3-fluoroallyl)oxy)phenyl)sulfonyl)methyl)bicyclo[2.2.1]heptan-1-yl)pivalamide] was run?
A: 0.02 to 0.1 µM

Q: What about the IC50 (recombinant hMAO-B) of the same compound?
A: 10 to 30 µM
